# Assay results taken from patent US20180140578A1, “METHODS AND COMPOSITIONS FOR THE DIAGNOSIS AND SELECTIVE TREATMENT OF CANCER” (Board of Regents of the University of Texas System, priority 2016, published 2018).
# Read-outs that look alike come from different tables or passages of the source.
# Columns and labels:
# Test in all cases: IC50 assay, NSCLC cell lines (Cell Titer Glo, total ATP)
# Type in all cases: cell-based
# A427 = conditions: Homo sapiens
# Method: (§1) Cells were plated at ˜15% confluence in a media comprising 5% concentration of fetal bovine serum supplemented with RPMI, which included 2 mM L-Glutamine in a 96 well dish. […] Following three days of incubation in a 5% CO2 incubator, the total ATP in each well was quantified using Cell Titer Glo (Promega). […] The solid lines represent the medians.
# H1568 = conditions: Homo sapiens
# Method: as §1
# H1573 = conditions: Homo sapiens, NCI-H1573, read-out: Indisulam IC50 (log 10) (converted), U2AF1 WT
# Method: as §1
# H1581 = conditions: Homo sapiens
# Method: as §1
# H1650 = conditions: Homo sapiens
# Method: as §1
# H1693 = conditions: Homo sapiens
# Method: as §1
# H1944 = conditions: Homo sapiens
# Method: as §1
# H1975 = conditions: Homo sapiens
# Method: as §1
# H2009 = conditions: Homo sapiens
# Method: as §1
# H2030 = conditions: Homo sapiens
# Method: as §1
# H2250 = conditions: Homo sapiens
# Method: as §1
# H2347 = conditions: Homo sapiens
# Method: as §1
# H2452 = conditions: Homo sapiens
# Method: as §1
# H2882 = conditions: Homo sapiens
# Method: as §1
# H2887 = conditions: Homo sapiens
# Method: as §1
# H292 = conditions: Homo sapiens
# Method: as §1
# H3122 = conditions: Homo sapiens
# Method: as §1
# H460 = conditions: Homo sapiens, NCI-H460, read-out: Indisulam IC50 (log 10) (converted), U2AF1 WT
# Method: as §1
# H522 = conditions: Homo sapiens
# Method: as §1
# H920 = conditions: Homo sapiens
# Method: as §1
# HCC1438 = conditions: Homo sapiens
# Method: as §1
# HCC15 = conditions: Homo sapiens
# Method: as §1
# HCC2279 = conditions: Homo sapiens
# Method: as §1
# HCC2450 = conditions: Homo sapiens
# Method: as §1
# HCC2814 = conditions: Homo sapiens
# Method: as §1
# HCC4006 = conditions: Homo sapiens
# Method: as §1
# HCC44 = conditions: Homo sapiens
# Method: as §1
# HCC78 = conditions: Homo sapiens
# Method: as §1
# LC-2/AD = conditions: Homo sapiens
# Method: as §1
# [1] = read-out: Indisulam IC50 (log 10) (converted), U2AF1 WT
# [2] = read-out: Indisulam IC50, U2AF1 WT
# [3] = read-out: Indisulam IC50 (log 10) (converted), U2AF1 S34F
# [4] = read-out: Indisulam IC50, U2AF1 S34F
structure (smiles),measurement,setting,value
"NS(=O)(=O)c1ccc(S(=O)(=O)Nc2cccc3c(Cl)c[nH]c23)cc1 [Indisulam, indisulam]",IC50,"A427; A-427, read-out: Indisulam IC50 (log 10) (converted), U2AF1 WT",13.9 µM
same,IC50,"A427; A-427, read-out: Indisulam IC50, U2AF1 WT",13.9 µM
same,IC50,"H1568; NCI-H1568, read-out: Indisulam IC50 (log 10) (converted), U2AF1 WT",265 µM
same,IC50,"H1568; NCI-H1568, read-out: Indisulam IC50, U2AF1 WT",265 µM
same,IC50,H1573,≥ 500 µM
same,IC50,"H1581; NCI-H1581, read-out: Indisulam IC50 (log 10) (converted), U2AF1 WT",19.2 µM
same,IC50,"H1581; NCI-H1581, read-out: Indisulam IC50, U2AF1 WT",19.2 µM
same,IC50,"H1650; NCI-H1650, read-out: Indisulam IC50 (log 10) (converted), U2AF1 WT",31.9 µM
same,IC50,"H1650; NCI-H1650, read-out: Indisulam IC50, U2AF1 WT",31.9 µM
same,IC50,"H1693; NCI-H1693, read-out: Indisulam IC50 (log 10) (converted), U2AF1 WT",5.17 µM
same,IC50,"H1693; NCI-H1693, read-out: Indisulam IC50, U2AF1 WT",5.17 µM
same,IC50,"H1944; NCI-H1944, read-out: Indisulam IC50 (log 10) (converted), U2AF1 WT",163 µM
same,IC50,"H1944; NCI-H1944, read-out: Indisulam IC50, U2AF1 WT",163 µM
same,IC50,"H1975; NCI-H1975, read-out: Indisulam IC50 (log 10) (converted), U2AF1 WT",1.51 µM
same,IC50,"H1975; NCI-H1975, read-out: Indisulam IC50, U2AF1 WT",1.51 µM
same,IC50,"H2009; NCI-H2009, read-out: Indisulam IC50 (log 10) (converted), U2AF1 WT",17.4 µM
same,IC50,"H2009; NCI-H2009, read-out: Indisulam IC50, U2AF1 WT",17.4 µM
same,IC50,"H2030; NCI-H2030, read-out: Indisulam IC50 (log 10) (converted), U2AF1 WT",79.1 µM
same,IC50,"H2030; NCI-H2030, read-out: Indisulam IC50, U2AF1 WT",79.1 µM
same,IC50,H2250; [1],≥ 500 µM
same,IC50,H2250; [2],1180 µM
same,IC50,"H2347; NCI-H2347, read-out: Indisulam IC50 (log 10) (converted), U2AF1 WT",13.5 µM
same,IC50,"H2347; NCI-H2347, read-out: Indisulam IC50, U2AF1 WT",13.5 µM
same,IC50,"H2452; NCI-H2452, read-out: Indisulam IC50 (log 10) (converted), U2AF1 WT",1.21 µM
same,IC50,"H2452; NCI-H2452, read-out: Indisulam IC50, U2AF1 WT",1.21 µM
same,IC50,"H2882; NCI-H2882, read-out: Indisulam IC50 (log 10) (converted), U2AF1 WT",12.2 µM
same,IC50,"H2882; NCI-H2882, read-out: Indisulam IC50, U2AF1 WT",12.2 µM
same,IC50,"H2887; NCI-H2887, read-out: Indisulam IC50 (log 10) (converted), U2AF1 WT",9.63 µM
same,IC50,"H2887; NCI-H2887, read-out: Indisulam IC50, U2AF1 WT",9.63 µM
same,IC50,"H292; NCI-H292, read-out: Indisulam IC50 (log 10) (converted), U2AF1 WT",1.12 µM
same,IC50,"H292; NCI-H292, read-out: Indisulam IC50, U2AF1 WT",1.12 µM
same,IC50,"H3122; NCI-H3122, read-out: Indisulam IC50 (log 10) (converted), U2AF1 WT",70.1 µM
same,IC50,"H3122; NCI-H3122, read-out: Indisulam IC50, U2AF1 WT",70.1 µM
same,IC50,H460,≥ 500 µM
same,IC50,"H522; NCI-H522, read-out: Indisulam IC50 (log 10) (converted), U2AF1 WT",1.22 µM
same,IC50,"H522; NCI-H522, read-out: Indisulam IC50, U2AF1 WT",1.22 µM
same,IC50,H920; [1],2.17 µM
same,IC50,H920; [2],2.17 µM
same,IC50,HCC1438; [1],22.7 µM
same,IC50,HCC1438; [2],22.7 µM
same,IC50,HCC15; [1],6.32 µM
same,IC50,HCC15; [2],6.32 µM
same,IC50,HCC2279; [1],5.68 µM
same,IC50,HCC2279; [2],5.68 µM
same,IC50,HCC2450; [1],135 µM
same,IC50,HCC2450; [2],135 µM
same,IC50,HCC2814; [1],8.72 µM
same,IC50,HCC2814; [2],8.72 µM
same,IC50,HCC4006; [1],0.735 µM
same,IC50,HCC4006; [2],0.735 µM
same,IC50,HCC44; [1],23 µM
same,IC50,HCC44; [2],23 µM
same,IC50,HCC78; [3],1.15 µM
same,IC50,HCC78; [4],1.15 µM
same,IC50,LC-2/AD; [3],0.376 µM
same,IC50,LC-2/AD; [4],0.376 µM
